Measured values taken from patent US20220356186A1, “PERK INHIBITING PYRROLOPYRIMIDINE COMPOUNDS” (HiberCell, Inc., priority 2019, published 2022).
Values belong to the molecule of their own block, whether it stands above or below them.

Assays:
[1] = molecular target: T1, EIF2AK3 (PERK) catalytic domain (amino acids 536-1116) (Homo sapiens, UniProt Q9NZJ5); test: PERK in vitro activity assay (isolated), TR-FRET kinase assay; type: biochemical; conditions: isolated PERK enzyme, 1.5 μM ATP; read-out: Biochemical IC50
T1 construct: EIF2AK3 (PERK) catalytic domain (amino acids 536-1116)
T1 sequence (Q9NZJ5 536-1116): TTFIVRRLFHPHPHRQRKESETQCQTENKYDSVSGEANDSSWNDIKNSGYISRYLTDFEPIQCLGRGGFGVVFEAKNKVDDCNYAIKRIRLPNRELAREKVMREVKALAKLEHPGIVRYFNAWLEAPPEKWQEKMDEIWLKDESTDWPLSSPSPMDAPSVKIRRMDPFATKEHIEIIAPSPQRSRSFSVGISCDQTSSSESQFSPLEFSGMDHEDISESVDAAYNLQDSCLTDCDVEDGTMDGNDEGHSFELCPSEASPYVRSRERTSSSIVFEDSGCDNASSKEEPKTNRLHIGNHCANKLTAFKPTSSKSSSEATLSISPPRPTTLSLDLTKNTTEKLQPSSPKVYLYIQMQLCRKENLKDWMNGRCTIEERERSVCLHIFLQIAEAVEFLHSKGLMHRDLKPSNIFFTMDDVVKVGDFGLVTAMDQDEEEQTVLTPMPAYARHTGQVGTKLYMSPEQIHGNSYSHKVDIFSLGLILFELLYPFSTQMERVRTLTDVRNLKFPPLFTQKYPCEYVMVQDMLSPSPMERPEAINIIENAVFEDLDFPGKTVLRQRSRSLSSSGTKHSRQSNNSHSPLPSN
Method in brief: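 Human PERK catalytic domain (aa 536-1116) phosphorylating 100-200 nM GFP-eIF2a in 50 mM HEPES pH 7.5, 10 mM MgCl2, 1 mM EGTA, 0.01% Brij-35; enzyme-started, 45 min at room temperature. Stopped with 10 mM EDTA, 2 nM Tb-anti-phospho-eIF2a added for 90 min; IC50 from TR-FRET ratios by 4-parameter logistic fit.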

[2] = tested on: GFP-eIF2α in HEK293 cells; test: PERK cellular assay, TR-FRET in HEK293-EGFP-eIF2a cells after tunicamycin-induced ER stress; type: cell-based; conditions: HEK293-EGFP-eIF2a cells, tunicamycin 2 hours; read-out: Cellular eIF2α IC50
Method in brief: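 HEK293 cells stably expressing GFP-eIF2α, plated 5000 cells/well overnight, pretreated with inhibitors 30 min at 37 °C, then ER stress induced with tunicamycin […] for 2 h.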

select kinases = test: KINOMEscan in vitro competition binding assay for select kinases; conditions: for KINOMEscan competition binding, inhibition of AURKB: kinase AURKB; for KINOMEscan competition binding, inhibition of AXL: kinase AXL; for KINOMEscan competition binding, inhibition of BLK: kinase BLK; for KINOMEscan competition binding, inhibition of CAMK4: kinase CAMK4; for KINOMEscan competition binding, inhibition of CDK8: kinase CDK8; for KINOMEscan competition binding, inhibition of CDK11: kinase CDK11; for KINOMEscan competition binding, inhibition of CSF1R: kinase CSF1R; for KINOMEscan competition binding, inhibition of EIF2AK1: kinase EIF2AK1; for KINOMEscan competition binding, inhibition of EPHB6: kinase EPHB6; for KINOMEscan competition binding, inhibition of FLT3: kinase FLT3; for KINOMEscan competition binding, inhibition of HIPK4: kinase HIPK4; for KINOMEscan competition binding, inhibition of LOK: kinase LOK; for KINOMEscan competition binding, inhibition of MAP3K2: kinase MAP3K2; for KINOMEscan competition binding, inhibition of MAP3K3: kinase MAP3K3; for KINOMEscan competition binding, inhibition of MAP3K15: kinase MAP3K15; for KINOMEscan competition binding, inhibition of MEK5: kinase MEK5; for KINOMEscan competition binding, inhibition of MKNK2: kinase MKNK2; for KINOMEscan competition binding, inhibition of NEK1: kinase NEK1; for KINOMEscan competition binding, inhibition of NEK5: kinase NEK5; for KINOMEscan competition binding, inhibition of PIK3C2B: kinase PIK3C2B; for KINOMEscan competition binding, inhibition of RIOK2: kinase RIOK2; for KINOMEscan competition binding, inhibition of RIPK1: kinase RIPK1; for KINOMEscan competition binding, inhibition of RIPK2: kinase RIPK2; for KINOMEscan competition binding, inhibition of RIPK5: kinase RIPK5; for KINOMEscan competition binding, inhibition of TESK1: kinase TESK1; for KINOMEscan competition binding, inhibition of TIE2: kinase TIE2; for KINOMEscan competition binding, inhibition of TRKA: kinase TRKA; for KINOMEscan competition binding, inhibition of TRKB: kinase TRKB; for KINOMEscan competition binding, inhibition of TRKC: kinase TRKC; for KINOMEscan competition binding, inhibition of VRK2: kinase VRK2; for KINOMEscan competition binding, inhibition of YANK1: kinase YANK1; for KINOMEscan competition binding, inhibition of YANK2: kinase YANK2; for KINOMEscan competition binding, inhibition of YSK4: kinase YSK4

IC50 [1]: 1 to 25 nM
KINOMEscan competition binding, inhibition of AXL (select kinases): No inhibition
SMILES: Cc1cc(NC(=O)C(O)c2cccc(F)c2)ccc1-c1cn(C)c2ncnc(N)c12 (centres unmarked) [Example 9, N-(4-(4-amino-7-methyl-7H-pyrrolo[2,3-d]pyrimidin-5-yl)-3-methylphenyl)-2-(3-fluorophenyl)-2-hydroxyacetamide]
IC50 [2]: 1 to 25 nM
KINOMEscan competition binding, inhibition of AURKB (select kinases): Inhibition (“Inhibition” refers to greater than 50% inhibition)
KINOMEscan competition binding, inhibition of BLK (select kinases): Inhibition (“Inhibition” refers to greater than 50% inhibition)
KINOMEscan competition binding, inhibition of CAMK4 (select kinases): Inhibition (“Inhibition” refers to greater than 50% inhibition)
KINOMEscan competition binding, inhibition of CDK8 (select kinases): Inhibition (“Inhibition” refers to greater than 50% inhibition)
KINOMEscan competition binding, inhibition of CDK11 (select kinases): Inhibition (“Inhibition” refers to greater than 50% inhibition)
KINOMEscan competition binding, inhibition of CSF1R (select kinases): Inhibition (“Inhibition” refers to greater than 50% inhibition)
KINOMEscan competition binding, inhibition of EIF2AK1 (select kinases): Inhibition (“Inhibition” refers to greater than 50% inhibition)
KINOMEscan competition binding, inhibition of EPHB6 (select kinases): Inhibition (“Inhibition” refers to greater than 50% inhibition)
KINOMEscan competition binding, inhibition of FLT3 (select kinases): Inhibition (“Inhibition” refers to greater than 50% inhibition)
KINOMEscan competition binding, inhibition of HIPK4 (select kinases): Inhibition (“Inhibition” refers to greater than 50% inhibition)
KINOMEscan competition binding, inhibition of LOK (select kinases): Inhibition (“Inhibition” refers to greater than 50% inhibition)
KINOMEscan competition binding, inhibition of MAP3K2 (select kinases): Inhibition (“Inhibition” refers to greater than 50% inhibition)
KINOMEscan competition binding, inhibition of MAP3K3 (select kinases): Inhibition (“Inhibition” refers to greater than 50% inhibition)
KINOMEscan competition binding, inhibition of MAP3K15 (select kinases): Inhibition (“Inhibition” refers to greater than 50% inhibition)
KINOMEscan competition binding, inhibition of MEK5 (select kinases): Inhibition (“Inhibition” refers to greater than 50% inhibition)
KINOMEscan competition binding, inhibition of MKNK2 (select kinases): Inhibition (“Inhibition” refers to greater than 50% inhibition)
KINOMEscan competition binding, inhibition of NEK1 (select kinases): Inhibition (“Inhibition” refers to greater than 50% inhibition)
KINOMEscan competition binding, inhibition of NEK5 (select kinases): Inhibition (“Inhibition” refers to greater than 50% inhibition)
KINOMEscan competition binding, inhibition of PIK3C2B (select kinases): Inhibition (“Inhibition” refers to greater than 50% inhibition)
KINOMEscan competition binding, inhibition of RIOK2 (select kinases): Inhibition (“Inhibition” refers to greater than 50% inhibition)
KINOMEscan competition binding, inhibition of RIPK1 (select kinases): No Inhibition (“No Inhibition” refers to less than 50% inhibition)
KINOMEscan competition binding, inhibition of RIPK2 (select kinases): Inhibition (“Inhibition” refers to greater than 50% inhibition)
KINOMEscan competition binding, inhibition of RIPK5 (select kinases): Inhibition (“Inhibition” refers to greater than 50% inhibition)
KINOMEscan competition binding, inhibition of TESK1 (select kinases): Inhibition (“Inhibition” refers to greater than 50% inhibition)
KINOMEscan competition binding, inhibition of TIE2 (select kinases): Inhibition (“Inhibition” refers to greater than 50% inhibition)
KINOMEscan competition binding, inhibition of TRKA (select kinases): Inhibition (“Inhibition” refers to greater than 50% inhibition)
KINOMEscan competition binding, inhibition of TRKB (select kinases): Inhibition (“Inhibition” refers to greater than 50% inhibition)
KINOMEscan competition binding, inhibition of TRKC (select kinases): Inhibition (“Inhibition” refers to greater than 50% inhibition)
KINOMEscan competition binding, inhibition of VRK2 (select kinases): Inhibition (“Inhibition” refers to greater than 50% inhibition)
KINOMEscan competition binding, inhibition of YANK1 (select kinases): Inhibition (“Inhibition” refers to greater than 50% inhibition)
KINOMEscan competition binding, inhibition of YANK2 (select kinases): Inhibition (“Inhibition” refers to greater than 50% inhibition)
KINOMEscan competition binding, inhibition of YSK4 (select kinases): Inhibition (“Inhibition” refers to greater than 50% inhibition)

KINOMEscan competition binding, inhibition of CAMK4 (select kinases): No inhibition
SMILES: Cc1cccc(CC(=O)N2CCc3c2ccc(-c2cn(C)c4ncnc(N)c24)c3F)n1 [GSK2656157, reference compound]
KINOMEscan competition binding, inhibition of AURKB (select kinases): Inhibition (“Inhibition” refers to greater than 50% inhibition)
KINOMEscan competition binding, inhibition of AXL (select kinases): Inhibition (“Inhibition” refers to greater than 50% inhibition)
KINOMEscan competition binding, inhibition of BLK (select kinases): Inhibition (“Inhibition” refers to greater than 50% inhibition)
KINOMEscan competition binding, inhibition of CDK8 (select kinases): Inhibition (“Inhibition” refers to greater than 50% inhibition)
KINOMEscan competition binding, inhibition of CDK11 (select kinases): Inhibition (“Inhibition” refers to greater than 50% inhibition)
KINOMEscan competition binding, inhibition of CSF1R (select kinases): Inhibition (“Inhibition” refers to greater than 50% inhibition)
KINOMEscan competition binding, inhibition of EIF2AK1 (select kinases): Inhibition (“Inhibition” refers to greater than 50% inhibition)
KINOMEscan competition binding, inhibition of EPHB6 (select kinases): Inhibition (“Inhibition” refers to greater than 50% inhibition)
KINOMEscan competition binding, inhibition of FLT3 (select kinases): No Inhibition (“No Inhibition” refers to less than 50% inhibition)
KINOMEscan competition binding, inhibition of HIPK4 (select kinases): No Inhibition (“No Inhibition” refers to less than 50% inhibition)
KINOMEscan competition binding, inhibition of LOK (select kinases): Inhibition (“Inhibition” refers to greater than 50% inhibition)
KINOMEscan competition binding, inhibition of MAP3K2 (select kinases): Inhibition (“Inhibition” refers to greater than 50% inhibition)
KINOMEscan competition binding, inhibition of MAP3K3 (select kinases): No Inhibition (“No Inhibition” refers to less than 50% inhibition)
KINOMEscan competition binding, inhibition of MAP3K15 (select kinases): No Inhibition (“No Inhibition” refers to less than 50% inhibition)
KINOMEscan competition binding, inhibition of MEK5 (select kinases): Inhibition (“Inhibition” refers to greater than 50% inhibition)
KINOMEscan competition binding, inhibition of MKNK2 (select kinases): No Inhibition (“No Inhibition” refers to less than 50% inhibition)
KINOMEscan competition binding, inhibition of NEK1 (select kinases): No Inhibition (“No Inhibition” refers to less than 50% inhibition)
KINOMEscan competition binding, inhibition of NEK5 (select kinases): No Inhibition (“No Inhibition” refers to less than 50% inhibition)
KINOMEscan competition binding, inhibition of PIK3C2B (select kinases): No Inhibition (“No Inhibition” refers to less than 50% inhibition)
KINOMEscan competition binding, inhibition of RIOK2 (select kinases): Inhibition (“Inhibition” refers to greater than 50% inhibition)
KINOMEscan competition binding, inhibition of RIPK1 (select kinases): Inhibition (“Inhibition” refers to greater than 50% inhibition)
KINOMEscan competition binding, inhibition of RIPK2 (select kinases): No Inhibition (“No Inhibition” refers to less than 50% inhibition)
KINOMEscan competition binding, inhibition of RIPK5 (select kinases): No Inhibition (“No Inhibition” refers to less than 50% inhibition)
KINOMEscan competition binding, inhibition of TESK1 (select kinases): No Inhibition (“No Inhibition” refers to less than 50% inhibition)
KINOMEscan competition binding, inhibition of TIE2 (select kinases): No Inhibition (“No Inhibition” refers to less than 50% inhibition)
KINOMEscan competition binding, inhibition of TRKA (select kinases): Inhibition (“Inhibition” refers to greater than 50% inhibition)
KINOMEscan competition binding, inhibition of TRKB (select kinases): No Inhibition (“No Inhibition” refers to less than 50% inhibition)
KINOMEscan competition binding, inhibition of TRKC (select kinases): Inhibition (“Inhibition” refers to greater than 50% inhibition)
KINOMEscan competition binding, inhibition of VRK2 (select kinases): Inhibition (“Inhibition” refers to greater than 50% inhibition)
KINOMEscan competition binding, inhibition of YANK1 (select kinases): No Inhibition (“No Inhibition” refers to less than 50% inhibition)
KINOMEscan competition binding, inhibition of YANK2 (select kinases): No Inhibition (“No Inhibition” refers to less than 50% inhibition)
KINOMEscan competition binding, inhibition of YSK4 (select kinases): Inhibition (“Inhibition” refers to greater than 50% inhibition)
